Measured values: US20170049843A1, “Hepatocyte Growth Factor Mimics as Therapeutic Agents” (WASHINGTON STATE UNIVERSITY, priority 2011, published 2017)
Where a SMILES comes first, the peptide text is derived from it. [ ]: non-standard residue; d: D form. The star is where a group is joined. Nle = CCCC[C@H](N)C(=O)O; Hexanoyl = CCCCCC(=O)*; Ahx = NCCCCCC(=O)O

Experiments:
[1] = tested on: hippocampal neurons; assay: Immunocytochemistry: correlation of spines to synaptic markers (VGLUT1, Synapsin, PSD-95); assay type: cell-based, rat; conditions: 5 days; for Number of spines/50 μm (PSD-95 staining experiment) / Number of spines/50 μm (Synapsin staining experiment) / Number of spines/50 μm (VGLUT1 staining experiment): 10^−12 M, N=25
Experimental: (§1) Transfected neurons were treated, fixed and stained. Briefly, cells were permeablized with 0.1% Triton X-100 detergent (Bio-Rad; Hercules, Calif.) for 10 minutes. An 8% bovine serum albumin (Intergen Company; Burlington, Mass.) in PBS was used to prevent non-specific binding for one hour at R.T.; Primary antibody incubations were at a 1:2500 dilution (see below) in 1% BSA in PBS at 4° C. overnight. Secondary antibody, 1:3000 Alexafluor 488 goat-anti-mouse (Invitrogen: Carlsbad, Calif.) was applied for two hours at room temperature. Coverslips were mounted with ProLong Gold anti-fade reagent (Invitrogen; Carlsbad, Calif.) and all washes were done with PBS. Imaging and analysis were performed as described above. For presynaptic excitatory transmission the VGLUT1 (Synaptic Systems, Goettingen, Germany) marker (Balschun, Moechars et al.) was employed and for general presynaptic transmission synapsinl (Synaptic Systems, Goettingen, Germany) (Ferreira and Rapoport 2002) was applied. A postsynaptic function was established by PSD-95 (Milipore, Billerica, Mass.) (El-Husseini, Schnell et al. 2000). In each instance the total number of spines was counted for the treatment groups, control, Nle1-AngIV and Dihexa, to ensure an active phenotype. The total number of actin enriched spines adjacent to VGLUT1 or Synapsin were counted and converted to a percentage as the percent correlation of treatment-induced spines to presynaptic markers is a strong indicator of ability to transmit excitatory signals.
as §1, with “fixed and stained as previously described in Chapter two. Briefly, cells” for “fixed and stained. Briefly, cells”, “enriched spines (red) adjacent to” for “enriched spines adjacent to”

[2] = tested on: c-Met receptor; assay: c-Met phosphorylation in acute adult hippocampal slices; assay type: cell-based, rat; conditions: 30 minutes
Description: Adult Sprague-Dawley rats (250 g+) obtained from Harlan Laboratories (Ca, USA) were anesthetized with isofluorane (Vet One™, MWI, Meridian, Id., USA) and decapitated. The brain was rapidly removed and placed into ice-chilled artificial cerebrospinal fluid (aCSF) for approximately 30 s. Both hemispheres were separated by a mid-saggital cut and both hippocampi removed. Slices were sectioned cross- and length-wise (400 μm) to ensure penetrability of the drug, using a McIlwain tissue chopper (Brinkmann, Gomshall, UK) and transferred to a gassed (95% O2/5% CO2) incubation chamber containing aCSF for 90 minutes at room temperature. Slices were transferred to fresh tubes, aCSF was removed by careful suctioning and replaced with aCSF containing vehicle (aCSF+aCSF), 100 ng/ml with carrier free adult recombinant Hepatocyte Growth Factor (HGF) (R and D Systems, MN, USA) in aCSF, 10^−10 M Hinge (Harding lab), […], 10^−10 M Dihexa (Harding lab) in aCSF, 10^−12 M Dihexa in aCSF or 50 ng/ml HGF+10^−12 M Dihexa in aCSF for 30 minutes at 37° C. with gentle rocking. aCSF was removed and the slices were lysed using RIPA buffer (Upstate/Milipore, Billerica, Mass.) and inhibitor Cocktails I and II (Sigma, St. Louis, Mo.), sonicated on ice and clarified by centrifugation for 30 minutes, 13,000 rpm at 4° C. The supernatant was removed from the pellet and stored at −80° C. or processed immediately for gel electrophoresis.
Protein concentration of the samples was quantified using the BCA method (Pierce, Rockford, Ill.) following the manufacturers protocol. Samples were added to SDS-PAGE buffer and boiled for 10 min. before loading onto a 4-12% Bis-Tris pre-cast gel (Invitrogen, Carlsbad, Calif.) for electrophoresis. Proteins were transferred onto PVDF membranes (Bio Rad, Hercules, Calif.) and blocked with AquaBlock™ (New England Biolabs, Ipswich, Mass.) for 1 hour at room temperature (RT). Primary antibody incubation was done in AquaBlock™ with rabbit anti-Met and […] phospho-Met (Tyr1234/1235) (1:1000, Cell Signaling Technology, Danvers, Mass.) overnight at 4° C. Alternating washes were done with PBS and PBST. Secondary antibody (IRDye) (Rockland, Gilbertsville, Pa.) incubations were done in AquaBlock™ for one hour at RT. Blots were imaged using LI-COR Odyssey Infrared Imaging System (LI-COR Biosciences, Lincoln, Nebr.).

[3] = non-saturating doses: HGF 50 ng/ml, Dihexa 10^−12 M
[4] = saturating doses: HGF 100 ng/ml, Dihexa 10^−10 M

HGF: recombinant hepatocyte growth factor (R&D Systems), ligand of c-Met
correlation between presynaptic marker Synapsin and postsynaptic spines ([1]; HGF 10 ng/ml, vehicle 94%): 98%
c-Met phosphorylation vs control (aCSF) [2, 3]: not statistically different from control treated slices
c-Met phosphorylation vs control (aCSF) [2, 4]: increased c-Met phosphorylation

CCCCCC(=O)N[C@@H](Cc1ccc(O)cc1)C(=O)N[C@H](C(=O)NCCCCCC(N)=O)[C@@H](C)CC [Dihexa, N-hexanoic-Tyr-Ile-(6)-aminohexanoic amide] (Hexanoyl-Tyr-Ile-[Ahx]-NH2)
Number of spines/50 μm (PSD-95 staining experiment) [1]: 43 spines/50 μm
Number of spines/50 μm (Synapsin staining experiment) [1]: 37 spines/50 μm
Number of spines/50 μm (VGLUT1 staining experiment) [1]: 44 spines/50 μm
c-Met phosphorylation vs control (aCSF) [2, 3]: not statistically different from control treated slices
c-Met phosphorylation vs control (aCSF) [2, 4]: increased c-Met phosphorylation

CCCC[C@H](N)C(=O)N[C@@H](Cc1ccc(O)cc1)C(=O)N[C@H](C(=O)N[C@@H](Cc1c[nH]cn1)C(=O)N1CCC[C@H]1C(=O)N[C@@H](Cc1ccccc1)C(=O)O)[C@@H](C)CC [Nle1-AngIV, reference compound] (H-[Nle]YIHPF-OH; N-terminus and C-terminus assumed)
Number of spines/50 μm (PSD-95 staining experiment) [1]: 36 spines/50 μm
Number of spines/50 μm (Synapsin staining experiment) [1]: 31 spines/50 μm
Number of spines/50 μm (VGLUT1 staining experiment) [1]: 39 spines/50 μm
